Results taken from patent US20120264735A1 (priority 2009, published 2012).

Target: T1, c-Met kinase (recombinant c-Met) (Homo sapiens, UniProt P08581)
T1 construct: 0.27 nM recombinant c-Met
Experiment: In vitro kinase assay I (homogeneous time-resolved fluorescence tyrosine kinase assay)
Format: biochemical
Method in brief: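 Biotinylated peptide (0.5 μM) phosphorylated by 0.2 nM recombinant c-Met with 50 μM MgATP, 60 min at room temperature, pH 7.4, 5% DMSO. EDTA stop; HTRF read with Eu-anti-phosphotyrosine antibody and streptavidin-APC. IC50 from 4-parameter logistic fit.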

T1 sequence (P08581 25-1390): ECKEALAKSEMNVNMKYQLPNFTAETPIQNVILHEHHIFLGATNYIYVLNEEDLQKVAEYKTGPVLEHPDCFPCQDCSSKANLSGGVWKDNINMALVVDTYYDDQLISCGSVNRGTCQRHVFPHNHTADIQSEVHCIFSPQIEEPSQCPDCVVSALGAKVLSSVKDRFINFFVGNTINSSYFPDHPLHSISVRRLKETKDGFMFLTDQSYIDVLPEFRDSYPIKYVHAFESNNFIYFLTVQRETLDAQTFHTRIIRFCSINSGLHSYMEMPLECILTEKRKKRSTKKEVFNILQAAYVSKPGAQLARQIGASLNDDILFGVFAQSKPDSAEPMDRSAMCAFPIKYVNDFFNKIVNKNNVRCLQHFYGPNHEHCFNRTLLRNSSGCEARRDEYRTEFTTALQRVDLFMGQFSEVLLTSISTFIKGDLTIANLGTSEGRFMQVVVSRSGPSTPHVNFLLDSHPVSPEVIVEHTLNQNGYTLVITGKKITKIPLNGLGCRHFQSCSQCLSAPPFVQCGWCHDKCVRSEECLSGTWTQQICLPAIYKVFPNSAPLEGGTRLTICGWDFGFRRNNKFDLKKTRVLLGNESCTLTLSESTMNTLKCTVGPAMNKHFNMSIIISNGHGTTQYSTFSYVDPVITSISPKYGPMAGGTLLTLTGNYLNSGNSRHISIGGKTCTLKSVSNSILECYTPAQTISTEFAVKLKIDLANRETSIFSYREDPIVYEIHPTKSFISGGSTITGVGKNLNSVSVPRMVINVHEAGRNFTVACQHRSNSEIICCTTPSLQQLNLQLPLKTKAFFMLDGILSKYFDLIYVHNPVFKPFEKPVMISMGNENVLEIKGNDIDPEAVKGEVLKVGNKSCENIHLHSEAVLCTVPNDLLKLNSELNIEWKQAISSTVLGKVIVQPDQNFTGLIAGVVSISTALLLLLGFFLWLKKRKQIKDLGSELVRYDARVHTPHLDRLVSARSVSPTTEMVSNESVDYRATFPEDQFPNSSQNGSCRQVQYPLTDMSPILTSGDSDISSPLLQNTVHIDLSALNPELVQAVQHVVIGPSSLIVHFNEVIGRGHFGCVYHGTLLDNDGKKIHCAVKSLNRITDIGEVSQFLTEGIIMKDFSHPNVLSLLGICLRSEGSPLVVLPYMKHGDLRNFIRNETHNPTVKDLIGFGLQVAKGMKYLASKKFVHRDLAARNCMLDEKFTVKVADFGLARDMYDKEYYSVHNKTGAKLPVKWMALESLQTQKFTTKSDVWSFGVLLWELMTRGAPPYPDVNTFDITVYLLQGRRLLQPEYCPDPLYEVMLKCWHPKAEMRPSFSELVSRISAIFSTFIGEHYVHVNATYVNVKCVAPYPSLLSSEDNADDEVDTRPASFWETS

SMILES	IC50
CN1CCN(CCCOC(=O)Nc2cccc(Cc3nn(-c4cc(F)cc(F)c4)ccc3=O)c2)CC1 [Example 518]	< 100 nM
CN1CCN(CCOC(=O)Nc2cccc(Cc3nn(-c4cc(F)cc(F)c4)ccc3=O)c2)CC1 [Example 519, 2-(4-methylpiperazin-1-yl)ethyl (3-{[1-(3,5-difluorophenyl)-4-oxo-1,4-dihydropyridazin-3-yl]methyl}phenyl)carbamate]	< 100 nM
O=C(Nc1cccc(Cc2nn(-c3cc(F)cc(F)c3)ccc2=O)c1)OCCCN1CCOCC1 [Example 521, 3-morpholin-4-ylpropyl (3-{[1-(3,5-difluorophenyl)-4-oxo-1,4-dihydropyridazin-3-yl]methyl}phenyl)carbamate]	< 100 nM
O=C(Nc1cccc(Cc2nn(-c3cc(F)cc(F)c3)ccc2=O)c1)OCCCN1CCS(=O)(=O)CC1 [Example 522, 3-(1,1-dioxidothio-morpholin-4-yl)propyl (3-{[1-(3,5-difluorophenyl)-4-oxo-1,4-dihydropyridazin-3-yl]methyl}phenyl)carbamate]	< 100 nM
O=C(Nc1cccc(Cc2nn(-c3cc(F)cc(F)c3)ccc2=O)c1)OCCN1CCOCC1 [Example 523, 2-morpholin-4-ylethyl (3-{[1-(3,5-difluorophenyl)-4-oxo-1,4-dihydropyridazin-3-yl]methyl}phenyl)carbamate]	< 100 nM
Cn1cc(-n2ccc(=O)c(Cc3cccc(NC(=O)OCCN4CCC(F)(F)C4)c3)n2)cn1 [Example 524, 2-(3,3-difluoropyrrolidin-1-yl)ethyl (3-{[1-(1-methyl-1H-pyrazol-4-yl)-4-oxo-1,4-dihydropyridazin-3-yl]methyl}phenyl)carbamate]	< 100 nM
Cn1cc(-n2ccc(=O)c(Cc3cccc(NC(=O)OCC(F)(F)CN4CCOCC4)c3)n2)cn1 [Example 525, 2,2-difluoro-3-morpholin-4-ylpropyl (3-{[1-(1-methyl-1H-pyrazol-4-yl)-4-oxo-1,4-dihydropyridazin-3-yl]methyl}phenyl)carbamate]	< 100 nM
Cn1cc(-n2ccc(=O)c(Cc3cccc(NC(=O)OCCC(C)(C)O)c3)n2)cn1 [Example 526, 3-hydroxy-3-methylbutyl (3-{[1-(1-methyl-1H-pyrazol-4-yl)-4-oxo-1,4-dihydropyridazin-3-yl]methyl}phenyl)carbamate]	< 100 nM
O=C(Nc1cccc(Cc2nn(-c3ccc(F)c(F)c3)ccc2=O)c1)OCC1CCOCC1 [Example 527, tetrahydro-2H-pyran-4-ylmethyl (3-{[1-(3,4-difluorophenyl)-4-oxo-1,4-dihydropyridazin-3-yl]methyl}phenyl)carbamate]	< 100 nM
O=C(Nc1cccc(Cc2nn(-c3ccc(F)c(F)c3)ccc2=O)c1)OCCN1CCS(=O)(=O)CC1 [Example 528, 2-(1,1-dioxidothio-morpholin-4-yl)ethyl-(3-{[1-(3,4-difluorophenyl)-4-oxo-1,4-dihydropyridazin-3-yl]methyl}phenyl)carbamate]	< 100 nM
O=C1CN(CCOC(=O)Nc2cccc(Cc3nn(-c4ccc(F)c(F)c4)ccc3=O)c2)CCN1 [Example 529, 2-(3-oxopiperazin-1-yl)ethyl (3-{[1-(3,4-difluorophenyl)-4-oxo-1,4-dihydropyridazin-3-yl]methyl}phenyl)carbamate]	< 100 nM
CN1CCN(CCOC(=O)Nc2cccc(Cc3nn(-c4cnn(C)c4)ccc3=O)c2)CC1 [Example 530, 2-(4-methylpiperazin-1-yl)ethyl (3-{[1-(1-methyl-1H-pyrazol-4-yl)-4-oxo-1,4-dihydropyridazin-3-yl]methyl}phenyl)carbamate]	< 100 nM
Cn1cc(-n2ccc(=O)c(Cc3cccc(NC(=O)OCCN4CCOCC4)c3)n2)cn1 [Example 531]	< 100 nM
Cn1cc(-n2ccc(=O)c(Cc3cccc(NC(=O)OCCN4CCCC4=O)c3)n2)cn1 [Example 533, 2-(2-oxopyrrolidin-1-yl)ethyl (3-{[1-(1-methyl-1H-pyrazol-4-yl)-4-oxo-1,4-dihydropyridazin-3-yl]methyl}phenyl)carbamate]	< 100 nM
Cn1cc(-n2ccc(=O)c(Cc3cccc(NC(=O)OCCn4cncn4)c3)n2)cn1 [Example 534, 2-(1H-1,2,4-triazol-1-yl)ethyl (3-{[1-(1-methyl-1H-pyrazol-4-yl)-4-oxo-1,4-dihydropyridazin-3-yl]methyl}phenyl)carbamate]	< 100 nM
Cn1cc(-n2ccc(=O)c(Cc3cccc(NC(=O)OCCN4CCOCC4=O)c3)n2)cn1 [Example 535, 2-(3-oxomorpholin-4-yl)ethyl (3-{[1-(1-methyl-1H-pyrazol-4-yl)-4-oxo-1,4-dihydropyridazin-3-yl]methyl}phenyl)carbamate]	< 100 nM

Next, values leading:

IC50	SMILES
< 100 nM	Cn1cc(-n2ccc(=O)c(Cc3cccc(NC(=O)OCCF)c3)n2)cn1 [Example 499, 2-fluoroethyl (3-{[1-(1-methyl-1H-pyrazol-4-yl)-4-oxo-1,4-dihydropyridazin-3-yl]methyl}phenyl)carbamate]
< 100 nM	CCCCOC(=O)Nc1cccc(Cc2nn(-c3cnn(C)c3)ccc2=O)c1 [Example 500, Butyl (3-{[1-(1-methyl-1H-pyrazol-4-yl)-4-oxo-1,4-dihydropyridazin-3-yl]methyl}phenyl)carbamate]
< 100 nM	Cn1cc(-n2ccc(=O)c(Cc3cccc(NC(=O)OCC(C)(C)C)c3)n2)cn1 [Example 501, 2,2-dimethylpropyl (3-{[1-(1-methyl-1H-pyrazol-4-yl)-4-oxo-1,4-dihydropyridazin-3-yl]methyl}phenyl)carbamate]
< 100 nM	COCCOC(=O)Nc1cccc(Cc2nn(-c3cccc(C#N)c3)ccc2=O)c1 [Example 502, 2-methoxyethyl (3-{[1-(3-cyanophenyl)-4-oxo-1,4-dihydropyridazin-3-yl]methyl}phenyl)carbamate]
< 100 nM	COCCOC(=O)Nc1cccc(Cc2nn(-c3cc(F)c(F)c(F)c3)ccc2=O)c1 [Example 503, 2-methoxyethyl (3-{[4-oxo-1-(3,4,5-trifluorophenyl)-1,4-dihydropyridazin-3-yl]methyl}phenyl)carbamate]
< 100 nM	CCOC(=O)Nc1cccc(Cc2nn(-c3ccc(F)c(F)c3)ccc2=O)c1 [Example 504, ethyl (3-{[1-(3,4-difluorophenyl)-4-oxo-1,4-dihydropyridazin-3-yl]methyl}phenyl)carbamate]
< 100 nM	CC(C)COC(=O)Nc1cccc(Cc2nn(-c3ccc(F)c(F)c3)ccc2=O)c1 [Example 505, 2-methylpropyl (3-{[1-(3,4-difluorophenyl)-4-oxo-1,4-dihydropyridazin-3-yl]methyl}phenyl)carbamate]
< 100 nM	COCCOC(=O)Nc1cccc(Cc2nn(-c3ccc(F)c(F)c3)ccc2=O)c1 [Example 506, 2-methoxyethyl (3-{[1-(3,4-difluorophenyl)-4-oxo-1,4-dihydropyridazin-3-yl]methyl}phenyl)carbamate]
< 100 nM	COCCOC(=O)Nc1cccc(Cc2nn(-c3cc(F)cc(F)c3)ccc2=O)c1 [Example 507, 2-methoxyethyl (3-{[1-(3,5-difluorophenyl)-4-oxo-1,4-dihydropyridazin-3-yl]methyl}phenyl)carbamate]
< 100 nM	COCCOC(=O)Nc1cccc(Cc2nn(-c3ccc(C#N)cc3)ccc2=O)c1 [Example 508, 2-methoxyethyl (3-{[1-(4-cyanophenyl)-4-oxo-1,4-dihydropyridazin-3-yl]methyl}phenyl)carbamate]
< 100 nM	COCCOC(=O)Nc1cccc(Cc2nn(-c3cc(F)cc(Cl)c3)ccc2=O)c1 [Example 509, 2-methoxyethyl (3-{[1-(3-chloro-5-fluorophenyl)-4-oxo-1,4-dihydropyridazin-3-yl]methyl}phenyl)carbamate]
< 100 nM	Cn1cc(-n2ccc(=O)c(Cc3cccc(NC(=O)OCCn4ccnc4)c3)n2)cn1 [Example 510, 2-(1H-Imidazol-1-yl)ethyl(3-{[1-(1-methyl-1H-pyrazol-4-yl)-4-oxo-1,4-dihydropyridazin-3-yl]methyl}phenyl)carbamate]
< 100 nM	CN1CCN(CCCOC(=O)Nc2cccc(Cc3nn(-c4cc(F)c(F)c(F)c4)ccc3=O)c2)CC1 [Example 511, 3-(4-methylpiperazin-1-yl)propyl(3-{[4-oxo-1-(3,4,5-trifluorophenyl)-1,4-dihydropyridazin-3-yl]methyl}phenyl)carbamate]
< 100 nM	O=C(Nc1cccc(Cc2nn(-c3cc(F)c(F)c(F)c3)ccc2=O)c1)OCCN1CCC(C(=O)O)CC1 [Example 512, 1-(2-{[(3-{[4-oxo-1-(3,4,5-trifluorophenyl)-1,4-dihydropyridazin-3-yl]methyl}phenyl)carbamoyl]oxy}ethyl)piperidine-4-carboxylic acid]
< 100 nM	CC(C)(O)CCOC(=O)Nc1cccc(Cc2nn(-c3cc(F)c(F)c(F)c3)ccc2=O)c1 [Example 514, 3-hydroxy-3-methylbutyl (3-{[4-oxo-1-(3,4,5-trifluorophenyl)-1,4-dihydropyridazin-3-yl]methyl}phenyl)carbamate]
< 100 nM	O=C(Nc1cccc(Cc2nn(-c3cc(F)c(F)c(F)c3)ccc2=O)c1)OCCN1CCS(=O)(=O)CC1 [Example 515, 2-(1,1-dioxidothio-morpholin-4-yl)ethyl (3-{[4-oxo-1-(3,4,5-trifluorophenyl)-1,4-dihydropyridazin-3-yl]methyl}phenyl)carbamate]
< 100 nM	CN1CCN(CCOC(=O)Nc2cccc(Cc3nn(-c4cc(F)c(F)c(F)c4)ccc3=O)c2)CC1 [Example 516, 2-(4-methylpiperazin-1-yl)ethyl (3-{[4-oxo-1-(3,4,5-trifluorophenyl)-1,4-dihydropyridazin-3-yl]methyl}phenyl)carbamate]
< 100 nM	O=C(Nc1cccc(Cc2nn(-c3cc(F)cc(F)c3)ccc2=O)c1)OCCN1CCS(=O)(=O)CC1 [Example 517, 2-(1,1-dioxidothio-morpholin-4-yl)ethyl (3-{[1-(3,5-difluorophenyl)-4-oxo-1,4-dihydropyridazin-3-yl]methyl}phenyl)carbamate]
